The record followed here is patent US12252524B2, “GIP/GLP1 co-agonist compounds” (Eli Lilly and Company, priority 2018, dated 2025).

Numbered stars: 1 amine (or outer) side, 2 acyl side, 3 side chain; on linkers, the order of the positions; unused ones are H or OH. Square brackets hold non-standard residues; d marks the D form. Side chains are listed from the residue outwards. Peptide text beside a SMILES is read from it. * marks the point of attachment. C20 diacid = O=C(O)CCCCCCCCCCCCCCCCCCC(=O)*; γGlu = O=C(O)[C@H](CCC(=O)[*:2])N[*:1]; AEEA = NCCOCCOCC(=O)O; Aib = CC(C)(N)C(=O)O

Broadly, the EC50 is the concentration that produces a half-maximal response. The Ki is the equilibrium dissociation constant of an inhibitor or competing ligand from its target.

Experiment [1] has as its target human GLP-1 receptor (GLP-1R) (Homo sapiens, UniProt P43220). Nature of the experiment: cAMP pharmacological functional assay in presence of casein, hGLP-1R. The note with it: HEK293 cells expressing hGLP-1R, 0.1% Casein, geometric mean; read-out: hGLP1R cAMP Rel EC50 nM (SEM, n). It counts as cell-based.
The target in experiment [2] is T1, gastric inhibitory peptide receptor (GIPR) (Homo sapiens, UniProt P48546).
T1 sequence (P48546 22-466): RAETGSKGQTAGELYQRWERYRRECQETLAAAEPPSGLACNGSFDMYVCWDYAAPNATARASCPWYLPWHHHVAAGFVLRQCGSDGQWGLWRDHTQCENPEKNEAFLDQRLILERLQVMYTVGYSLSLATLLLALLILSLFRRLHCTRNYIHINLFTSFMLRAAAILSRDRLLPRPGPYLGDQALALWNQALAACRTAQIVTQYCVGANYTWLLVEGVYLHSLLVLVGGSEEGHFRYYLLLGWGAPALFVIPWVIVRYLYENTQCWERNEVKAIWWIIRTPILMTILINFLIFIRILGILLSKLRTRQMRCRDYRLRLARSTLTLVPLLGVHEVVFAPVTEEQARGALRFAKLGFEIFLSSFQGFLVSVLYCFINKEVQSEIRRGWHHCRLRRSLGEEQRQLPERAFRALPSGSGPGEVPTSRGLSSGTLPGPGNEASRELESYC
Nature of the experiment: cAMP pharmacological functional assay in presence of casein, hGIPR. It counts as cell-based. As to conditions: HEK293 cells expressing hGIPR, 0.1% Casein, geometric mean; read-out: hGIPR cAMP Rel EC50 nM (SEM, n).

The target in a further experiment is T2, human GIP receptor (Homo sapiens, UniProt P48546).
T2 construct: expressed in transfected cells; crude membranes
T2 sequence (P48546 22-466): T1 sequence (P48546 22-466)
In words: [125I]-GIP binding (SPA), human GIP receptor. The note with it: read-out: hGIPR Ki, nM (SEM, n).

Another experiment deals with T3, human Gcg receptor (Homo sapiens, UniProt P47871).
T3 construct: expressed in transfected cells; crude membranes
Nature of the experiment: [125I]-Glucagon binding (SPA), human Gcg receptor. As to conditions: read-out: hGLcgR Ki, nM (SEM, n). The essentials: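 Cell pellets were lysed in hypotonic Tris buffer, pH 7.5, homogenized, and spun at low then high speed to give crude membranes. Ki was derived from the fitted IC50.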

The target of another experiment is human GLP-1R (Homo sapiens, UniProt P43220). In words: [125I]-GLP-1 binding (SPA), human GLP-1 receptor. Set-up: expressed in transfected cells; crude membranes. As to conditions: read-out: hGLP1R Ki, (nM) (SEM, n). In outline:
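Membranes: hypotonic lysis (50 mM Tris HCl, pH 7.5, protease inhibitors), Potter-Elvehjem homogenization, high-speed pellet (35000×g 1 h or 25000×g 30 min, 4° C.). Buffer: 25 mM HEPES pH 7.4, 2.5 mM CaCl2, 1 mM MgCl2. Four-parameter IC50 fit; Ki as geometric mean ± SEM.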

T3 sequence (P47871 26-477): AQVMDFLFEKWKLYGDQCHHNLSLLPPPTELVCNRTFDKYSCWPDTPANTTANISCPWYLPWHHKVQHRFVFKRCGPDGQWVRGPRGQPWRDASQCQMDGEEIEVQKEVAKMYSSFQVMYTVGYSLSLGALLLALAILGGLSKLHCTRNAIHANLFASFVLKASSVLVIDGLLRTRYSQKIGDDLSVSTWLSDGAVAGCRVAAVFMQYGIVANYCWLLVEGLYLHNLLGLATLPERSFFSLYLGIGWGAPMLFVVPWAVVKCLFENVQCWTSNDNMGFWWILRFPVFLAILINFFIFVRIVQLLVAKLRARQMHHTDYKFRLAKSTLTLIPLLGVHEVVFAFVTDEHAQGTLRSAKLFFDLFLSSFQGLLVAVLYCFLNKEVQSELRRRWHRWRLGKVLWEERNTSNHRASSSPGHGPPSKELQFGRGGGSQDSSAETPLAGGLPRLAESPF
human GLP-1 receptor (GLP-1R), sequence (P43220 24-463): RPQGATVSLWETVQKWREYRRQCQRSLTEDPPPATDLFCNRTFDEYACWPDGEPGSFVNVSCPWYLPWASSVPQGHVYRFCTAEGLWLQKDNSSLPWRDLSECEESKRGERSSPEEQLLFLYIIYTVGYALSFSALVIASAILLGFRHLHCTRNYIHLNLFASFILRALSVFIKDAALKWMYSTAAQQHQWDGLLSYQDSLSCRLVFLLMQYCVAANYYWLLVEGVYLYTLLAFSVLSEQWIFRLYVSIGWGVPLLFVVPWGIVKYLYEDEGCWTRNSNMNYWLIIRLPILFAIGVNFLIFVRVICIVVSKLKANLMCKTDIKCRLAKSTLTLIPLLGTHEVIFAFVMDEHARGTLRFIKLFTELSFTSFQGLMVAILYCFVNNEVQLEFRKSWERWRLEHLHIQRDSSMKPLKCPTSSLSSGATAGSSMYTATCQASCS
human GLP-1R, sequence (P43220 24-463): as above

In the case of `CC[C@H](C)[C@H](NC(=O)[C@H](CC(C)C)NC(=O)[C@H](Cc1ccc(O)cc1)NC(=O)[C@H](CCC(=O)O)NC(=O)[C@@H](NC(=O)[C@H](Cc1ccccc1)NC(=O)[C@H](C)NC(=O)C(C)(C)NC(=O)[C@H](CCC(N)=O)NC(=O)[C@H](C)NC(=O)[C@H](CCCCNC(=O)COCCOCCNC(=O)COCCOCCNC(=O)CC[C@H](NC(=O)CCCCCCCCCCCCCCCCCCC(=O)O)C(=O)O)NC(=O)[C@H](CCCCN)NC(=O)[C@H](CC(=O)O)NC(=O)[C@H](CC(C)C)NC(=O)[C@H](CC(C)C)NC(=O)[C@H](CO)NC(=O)[C@H](CO)NC(=O)[C@H](Cc1ccc(O)cc1)NC(=O)[C@H](CC(=O)O)NC(=O)[C@H](CO)NC(=O)[C@@H](NC(=O)[C@H](Cc1ccccc1)NC(=O)[C@@H](NC(=O)CNC(=O)[C@H](CCC(=O)O)NC(=O)C(C)(C)NC(=O)[C@@H](N)Cc1ccc(O)cc1)[C@@H](C)O)[C@@H](C)O)[C@@H](C)CC)C(=O)N[C@@H](CCC(=O)O)C(=O)NCC(=O)NCC(=O)N1CCC[C@H]1C(=O)N[C@@H](CO)C(=O)N[C@@H](CO)C(=O)NCC(=O)N[C@@H](C)C(=O)N1CCC[C@H]1C(=O)N1CCC[C@H]1C(=O)N1CCC[C@H]1C(=O)N[C@@H](CO)C(N)=O` [Example 58] (H-Y[Aib]EGTFTSDYSSLLDKK([AEEA-AEEA-γGlu-C20 diacid])AQ[Aib]AFIEYLIEGGPSSGAPPPS-NH2; N-terminus assumed), the figures for the EC50 in experiment [1] and in experiment [2] were 0.18 nM and 0.266 nM, respectively. In addition, the Ki on human GIP receptor came to 0.105 nM; at human Gcg receptor, 339 nM; at human GLP-1R it was 2.77 nM.

For the compound `CC[C@H](C)[C@H](NC(=O)[C@H](CC(C)C)NC(=O)[C@H](Cc1ccc(O)cc1)NC(=O)[C@H](CCC(=O)O)NC(=O)[C@@H](NC(=O)[C@H](Cc1ccccc1)NC(=O)[C@H](C)NC(=O)[C@H](CCCCNC(=O)COCCOCCNC(=O)COCCOCCNC(=O)CC[C@H](NC(=O)CCCCCCCCCCCCCCCCCCC(=O)O)C(=O)O)NC(=O)[C@H](CCC(N)=O)NC(=O)[C@H](C)NC(=O)[C@@H](NC(=O)C(C)(C)NC(=O)[C@H](CC(=O)O)NC(=O)[C@H](CC(C)C)NC(=O)[C@H](CC(C)C)NC(=O)[C@@H](NC(=O)[C@H](CO)NC(=O)[C@H](Cc1ccc(O)cc1)NC(=O)[C@H](CC(=O)O)NC(=O)[C@H](CO)NC(=O)[C@@H](NC(=O)[C@H](Cc1ccccc1)NC(=O)[C@@H](NC(=O)CNC(=O)[C@H](CCC(=O)O)NC(=O)C(C)(C)NC(=O)[C@@H](N)Cc1ccc(O)cc1)[C@@H](C)O)[C@@H](C)O)[C@@H](C)CC)[C@@H](C)CC)[C@@H](C)CC)C(=O)N[C@@H](CCC(=O)O)C(=O)NCC(=O)NCC(=O)N1CCC[C@H]1C(=O)N[C@@H](CO)C(=O)N[C@@H](CO)C(=O)NCC(=O)N[C@@H](C)C(=O)N1CCC[C@H]1C(=O)N1CCC[C@H]1C(=O)N1CCC[C@H]1C(=O)N[C@@H](CO)C(N)=O` [Example 13] (H-Y[Aib]EGTFTSDYSILLD[Aib]IAQK([AEEA-AEEA-γGlu-C20 diacid])AFIEYLIEGGPSSGAPPPS-NH2), the EC50 turned out to be 5.39 nM in experiment [1] and 1.05 nM in experiment [2]. The values for the Ki at human GIP receptor, at human Gcg receptor and on human GLP-1R were 0.296 nM, > 1060 nM and 31.1 nM, respectively.
